# Read-outs that look alike come from different tables or passages of the source.
# Legend:
# [1] = pKa of the bridging nitrogen; assay type: physicochemical; conditions: positively-charged bridging nitrogen of the bicyclic ring
# [2] = test system: human α3β4 receptor; conditions: ref Tuan et al., 2015; cited from earlier work
# [3] = test system: α3β4; conditions: cited from earlier work
# [4] = target: T1, α3β4 receptor (Homo sapiens, UniProt P30926+P32297, DEL362-406/DEL379-429/F412N/I408D/INS413[…]/INS432[…]/L414K/P409L/R410E/R415Y/S416L/S433L/V431D); assay type: binding; conditions: Fab in large excess (1 μM); Fig. S1C-F
# [5] = target: T1, α3β4 receptor; experiment: Functional response to nicotine in presence of Fab; assay type: cell-based; conditions: Fig. S1B
# [6] = ref Eaton et al., 2003, Xiao et al., 1998
molecule,measurement,setting,value
CN1C2CCCC1CC(Nc1ccccc1Br)C2 (centres unmarked) [AT-1001],pKa,[1],9.35
same,affinity to the human α3β4 receptor,[2],sub-nanomolar
same,selectivity for α3β4 over α4β2,[2],~ 200 fold
CN1CCC[C@H]1c1cccnc1 [nicotine],affinity lower for α3β4 than for α4β2,[3],10-100 fold
CC(=O)OCC[N+](C)(C)C [acetylcholine],affinity lower for α3β4 than for α4β2,[3]; [6],10-100 fold
Clc1ccc(C2CC3CCC2N3)cn1 (centres unmarked) [epibatidine],affinity lower for α3β4 than for α4β2,[3]; [6],10-100 fold
"Fab: Fab fragment of the 4G9 mouse monoclonal antibody (IgG2b, κ) raised against α3β4 (antibody, V domains shown) VH: QVQLQQSGPELVRPGVSVKISCKGSGYTFTDYALYWVRQSHAKSLEWIGVINPYSGNTNYNQKFKGKATMTVDKSSSTAYMELARLTSDDSAIYYCASGYDGYPYTMDYWGPGASVTVSS VL: QIVLTQSPAIMSASPGEKVTMTCSASSSMTYMHWYQQKSGTSPKRWIYDTSQLASGVPARFRGSGSGTSFSLTISSMEAEDAATYYCQQWSSNPLTFGGGTKLELK",effect on ligand binding,[4],small positive effect
same,effect on the functional response to nicotine,[5],little to no effect

# From paper PMC6842111 (Neuron, 2019)
